Source: the NIST ThermoML archive (doi:10.1021/je9000922)
± gives the expanded uncertainty stated by the source.

Settings: 355.65 K; Liquid

With `CC(C)O` [propan-2-ol] the “vapor or sublimation pressure” value was 101.32 ± 3 kPa.
